Results on two compounds are retold here after article PMC12365235, “Molecular mechanisms of thiazide-like diuretics-mediated inhibition of the human Na-Cl cotransporter” (Nature Communications, 2025).

In this test the target is T1, hNCC(N227A) (Homo sapiens, UniProt P55017, N227A).
T1 construct: expressed in transfected cells
T1 sequence (P55017 1-1021 N227A): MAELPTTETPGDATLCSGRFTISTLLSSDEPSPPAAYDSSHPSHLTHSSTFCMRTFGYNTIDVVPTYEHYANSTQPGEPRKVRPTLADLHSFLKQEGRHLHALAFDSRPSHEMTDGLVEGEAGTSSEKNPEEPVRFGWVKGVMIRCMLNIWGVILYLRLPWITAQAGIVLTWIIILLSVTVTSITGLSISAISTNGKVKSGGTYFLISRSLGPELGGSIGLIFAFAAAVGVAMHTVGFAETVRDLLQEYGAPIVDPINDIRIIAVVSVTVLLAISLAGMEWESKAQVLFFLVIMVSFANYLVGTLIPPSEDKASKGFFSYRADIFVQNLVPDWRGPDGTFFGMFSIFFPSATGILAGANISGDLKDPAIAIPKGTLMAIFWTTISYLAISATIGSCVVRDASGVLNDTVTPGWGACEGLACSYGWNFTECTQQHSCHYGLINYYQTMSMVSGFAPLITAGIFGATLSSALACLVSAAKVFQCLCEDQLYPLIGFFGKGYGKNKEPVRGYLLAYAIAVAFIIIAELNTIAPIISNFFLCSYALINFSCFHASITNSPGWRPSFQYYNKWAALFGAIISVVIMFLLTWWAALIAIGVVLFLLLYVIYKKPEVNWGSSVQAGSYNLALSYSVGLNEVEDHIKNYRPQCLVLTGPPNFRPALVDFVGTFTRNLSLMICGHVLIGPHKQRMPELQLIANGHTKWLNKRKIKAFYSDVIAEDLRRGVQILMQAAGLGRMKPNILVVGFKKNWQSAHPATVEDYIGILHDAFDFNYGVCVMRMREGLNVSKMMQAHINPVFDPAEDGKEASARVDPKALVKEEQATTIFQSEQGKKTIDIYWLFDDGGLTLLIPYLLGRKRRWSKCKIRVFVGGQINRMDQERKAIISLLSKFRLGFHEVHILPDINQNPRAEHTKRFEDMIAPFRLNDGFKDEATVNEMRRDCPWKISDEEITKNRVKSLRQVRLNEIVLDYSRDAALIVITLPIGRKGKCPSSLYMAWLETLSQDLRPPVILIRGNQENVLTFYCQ
Briefly: 125I- uptake assay, hNCC(N227A) variant. The conditions noted are these: for increase in IC50 relative to hNCC(WT) / IC50: N227A substitution; for IC50: iodide uptake. In kind it is cell-based. The method, then:
HEK293S cell lines, cultured in 293 Freestyle medium (Life Technologies; plus 10% fetal bovine serum), stably expressing hNCC and its variants were generated following published protocols. Cells were transfected using Lipofectamine 3000 (Invitrogen) with a pSBbi-RP-based plasmid containing hNCC or its variants and the SB100X vector. Puromycin (2 μg/mL; Gemini Bio-Products) was used for selection of stable cell lines.
To prepare for the uptake experiment, cells were plated at 0.5 × 10^6 cells/well in 24-well plates one day in advance. To activate NCC, cells were treated with a chloride-free hypotonic solution composed of 67.5 mM sodium-, 2.5 mM potassium-, 0.25 mM magnesium-, and 0.25 mM calcium-gluconate, as well as 7.5 mM HEPES pH 7.4 (buffered using Tris) at 37 °C for 10 min[72]. After the activation step, the experiments were carried out at room temperature. Ten minutes before the start of ^125I^− uptake, 70 μM Bumetanide (Thermo Scientific Chemicals) and 100 μM 4,4′-diisothiocyanatostilbene-2,2′-disulfonic acid (DIDS; Sigma) were added to suppress background iodide uptake activity. Indicated thiazide diuretics were also added to the indicated concentrations 10 min before the start of ^125I^− uptake. The original buffer was switched to an uptake buffer composed of 135 mM Na-gluconate, 5 mM K-gluconate, 1 mM Mg-gluconate, 1 mM Ca-gluconate, 70 μM bumetanide, 100 μM DIDS, 1 mM NaI, 0.25 μCi/ml Na^125I (American Radiolabeled Chemicals, Inc.), and 15 mM HEPES pH 7.4 (buffered using Tris), in the presence or absence of thiazide diuretics to initiate ^125I^− uptake. The ^125I^− uptake process lasted 1 h and was stopped by two rapid washes using ice-cold 110 mM MgCl2. Cells lysed using 1% sodium dodecyl sulfate (SDS) were analyzed by scintillation counting.
To calculate the fold change of the half-maximal inhibitory concentration (IC50) between hNCC(WT) and different hNCC variants, individual dose-response curves were normalized first using the smallest mean and the value of the lowest concentration as 0% and 100%, respectively. The normalized data were then fitted using the “EC50 shift” nonlinear regression in GraphPad Prism 10 with the shared EC50Control assigned to be the IC50 of hNCC(WT). The following constraints were used in the EC50 shift analysis. The EC50Control was set to be shared across all curves under analysis and constrained to be greater than 0. The EC50Ratio was constrained to be greater than 0. The bottom, top, and HillSlope were constrained to be 0, 100, and −1, respectively. For Fig. 1f, g and Supplementary Fig. 2d, GraphPad Prism 10 was used to perform curve fitting and IC50 calculation for normalized data using y = 100/(1 + (x/IC50)).

Take `NS(=O)(=O)c1cc(C2(O)NC(=O)c3ccccc32)ccc1Cl` (centres unmarked) [chlorthalidone]: the “increase in IC50 relative to hNCC(WT)” value is recorded as above 1000 fold and it took 59 µM to reach half-maximal inhibition (IC50).

On to `CC1Cc2ccccc2N1NC(=O)c1ccc(Cl)c(S(N)(=O)=O)c1` (centres unmarked) [indapamide], for which the “increase in IC50 relative to hNCC(WT)” value is given as “over 10,000 fold” and the IC50 (usually the concentration that gives 50% inhibition) was determined as 620 µM. In addition, for the setting “N227A, polythiazide sensitivities from ref 36”, the “effect of N227A substitution on potency relative to its effect on polythiazide” value is on record as “over 50 fold”.
